Experimental data: ChEMBL document CHEMBL1157899, “Molecular modelling, synthesis and acetylcholinesterase inhibition of ethyl 5-amino-2-methyl-6,7,8,9-tetrahydrobenzo[b][1,8]naphthyridine-3-carboxylate” (Bioorg Med Chem Lett, 2010); call rule not given here

Columns and labels:
Acetylcholinesterase [1] = molecular target: Acetylcholinesterase (Electrophorus electricus, UniProt O42275); experiment: Inhibition of electric eel AChE
Cholinesterase = Cholinesterase (Equus caballus, UniProt P81908); experiment: Inhibition of Equus caballus BuChE
Chain of Cholinesterase (P81908 whole entry): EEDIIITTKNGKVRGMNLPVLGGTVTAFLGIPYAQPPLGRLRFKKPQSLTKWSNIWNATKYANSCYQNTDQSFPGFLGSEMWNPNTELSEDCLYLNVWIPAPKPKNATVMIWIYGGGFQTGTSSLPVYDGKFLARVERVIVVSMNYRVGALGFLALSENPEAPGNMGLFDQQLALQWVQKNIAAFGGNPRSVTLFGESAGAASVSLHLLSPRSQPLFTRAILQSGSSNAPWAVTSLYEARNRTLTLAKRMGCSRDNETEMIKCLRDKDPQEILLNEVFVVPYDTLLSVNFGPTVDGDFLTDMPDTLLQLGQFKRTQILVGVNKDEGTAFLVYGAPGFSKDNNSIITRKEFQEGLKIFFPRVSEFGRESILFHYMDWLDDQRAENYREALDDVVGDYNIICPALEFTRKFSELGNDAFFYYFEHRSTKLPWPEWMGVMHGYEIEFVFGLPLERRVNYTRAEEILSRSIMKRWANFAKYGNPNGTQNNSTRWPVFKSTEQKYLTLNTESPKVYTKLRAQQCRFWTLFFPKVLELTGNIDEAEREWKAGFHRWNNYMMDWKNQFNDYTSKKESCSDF

Acetylcholinesterase [2] = molecular target: Acetylcholinesterase (Homo sapiens, UniProt P22303); experiment: Inhibition of human AChE
Chain of Acetylcholinesterase (Homo sapiens, UniProt P22303) (P22303 whole entry): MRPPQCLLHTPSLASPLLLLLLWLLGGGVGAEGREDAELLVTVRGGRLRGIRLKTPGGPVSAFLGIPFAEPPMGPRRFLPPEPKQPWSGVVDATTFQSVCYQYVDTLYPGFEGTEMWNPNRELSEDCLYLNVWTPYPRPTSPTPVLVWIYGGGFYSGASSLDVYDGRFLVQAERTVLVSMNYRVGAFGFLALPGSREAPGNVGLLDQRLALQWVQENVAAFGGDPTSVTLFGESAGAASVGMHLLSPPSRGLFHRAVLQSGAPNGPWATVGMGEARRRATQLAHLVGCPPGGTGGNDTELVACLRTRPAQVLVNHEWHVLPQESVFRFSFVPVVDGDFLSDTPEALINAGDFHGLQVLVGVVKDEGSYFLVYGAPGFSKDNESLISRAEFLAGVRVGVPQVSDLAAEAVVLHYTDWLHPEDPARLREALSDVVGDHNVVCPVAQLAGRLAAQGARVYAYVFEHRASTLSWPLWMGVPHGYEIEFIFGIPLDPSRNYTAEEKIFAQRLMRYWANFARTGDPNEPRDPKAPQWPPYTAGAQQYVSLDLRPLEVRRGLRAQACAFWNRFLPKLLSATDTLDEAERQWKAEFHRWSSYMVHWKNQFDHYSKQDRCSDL

Chain of Acetylcholinesterase (Electrophorus electricus, UniProt O42275) (O42275 whole entry): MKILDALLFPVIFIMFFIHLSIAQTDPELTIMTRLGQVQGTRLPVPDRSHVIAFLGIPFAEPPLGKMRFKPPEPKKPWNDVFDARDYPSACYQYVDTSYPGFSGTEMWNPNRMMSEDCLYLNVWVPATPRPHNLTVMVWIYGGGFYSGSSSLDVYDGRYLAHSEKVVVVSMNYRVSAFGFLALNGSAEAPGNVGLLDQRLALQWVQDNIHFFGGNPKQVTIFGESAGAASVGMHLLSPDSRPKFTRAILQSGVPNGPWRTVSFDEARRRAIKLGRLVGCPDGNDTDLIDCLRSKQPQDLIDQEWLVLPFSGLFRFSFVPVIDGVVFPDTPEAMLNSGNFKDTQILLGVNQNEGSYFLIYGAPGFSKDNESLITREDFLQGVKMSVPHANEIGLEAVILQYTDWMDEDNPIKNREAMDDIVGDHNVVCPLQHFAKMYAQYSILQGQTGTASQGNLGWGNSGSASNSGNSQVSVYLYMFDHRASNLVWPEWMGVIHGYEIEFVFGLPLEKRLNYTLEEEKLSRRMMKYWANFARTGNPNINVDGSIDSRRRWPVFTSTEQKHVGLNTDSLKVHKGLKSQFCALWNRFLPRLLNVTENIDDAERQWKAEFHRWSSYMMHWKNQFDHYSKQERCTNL

Compound | IC50 (Acetylcholinesterase [1]) [µM] | IC50 (Cholinesterase; read-out: IC50) [µM] | IC50 (Acetylcholinesterase [2]) [µM] | IC50 (Cholinesterase)
CCOC(=O)c1cc2c(N)c3c(nc2nc1C)CCCC3 | 0.06 | 12 | 0.78 | 
Cc1nc2nc3c(c(N)c2cc1C(=O)O)CCCC3 | 15 |  |  | Not Active
Cc1nc2nc3c(c(N)c2cc1C(=O)[O-])CCCC3.[Na+] | 5.3 |  |  | Not Active
CCOC(=O)c1c(C)nc2nc3c(c(N)c2c1-c1ccccc1)CCCC3 |  | 5.03 |  | 
